Here are results for eight molecules from article PMC8983599 (Cancer Discovery, 2022).

Read-outs that look alike come from different tables or passages of the source.

Series [1] relates to Saa3 expression in mouse primary osteoblasts. Put plainly: Saa3 mRNA in primary differentiated mouse calvaria osteoblasts. It counts as cell-based. Particulars: 25 nmol/L, 24 hours.
Series [2] relates to patient-derived AML cells. Put plainly: PDX in NSG mice, combination therapy. The class given is in vivo. The following applies: day 22 after initiating therapy.
The next series has as its target 5-HT1B receptor (HTR1B) (Homo sapiens, UniProt P28222). Put plainly: GloSensor Gi/o-mediated cAMP inhibition assay in transfected HEK293T cells. It counts as cell-based.
Series [3] has as its system leukemic blasts (hCD45+ hCD33+). Put plainly: Kyn injection in low AML burden PDX mice. The class given is in vivo, NSGS mice. Particulars: Kyn 20mg/kg for 1 week.
In a further series the test system is MLL/AF9 AML cells. It counts as in vivo, mouse.
The next series has as its target murine HTR1B receptor (Mus musculus, UniProt P28334). Put plainly: [3H]-Kyn binding competition, Htr1b-overexpressing HEK293T membranes. The following applies: SB9 at ∼90 μmol/L, equal to the concentration administered in vivo.
The target of another series is mouse HTR1B (Mus musculus, UniProt P28334). Particulars: Fig. S1M.
The subject of series [4] is Cyclins D1, D2, and E1 (targets of serotonin-HTR1B signaling). Nature of the series: Bone. The class given is in vivo, mouse. Particulars: SB9-treated mice.
In series [5] the test system is Kyn/Trp ratio (indicator of IDO1 activity). Put plainly: Serum Kyn and Trp levels. The class given is in vivo, mouse.
The subject of series [6] is patient-derived AML cells. Put plainly: Patient-derived AML xenograft. The class given is in vivo, NSGS mice. Particulars: epacadostat 300 mg/kg daily gavage.
Series [7] in a line: Systemic toxicity of epacadostat diet in WT mice. It counts as in vivo, mouse. Particulars: epacadostat ad libitum diet 0.8 g/kg.
A further series deals with Ido1. Nature of the series: CRISPR/Cas9-mediated Ido1 targeting of primary murine MLL/AF9 cells. The class given is cell-based, mouse. The following applies: Ido1 exon 3.
For series [8], the system named is IDO1 expression in OCI-AML3 cells. Put plainly: IDO1 mRNA in human AML/MDS cell lines exposed to recombinant proteins. It counts as cell-based.
The subject of series [9] is lineage-depleted AML and MDS BM-MNCs. It counts as cell-based, human. The following applies: SAA1 5 μg/mL, 24 hours.
Series [10] relates to total human BM cells isolated from PDX mice. Nature of the series: Ex vivo human BM cells isolated from PDX mice. It counts as cell-based. Particulars: SAA1 1 μg/mL, 24 hours.
The next series has as its system THP-1 and OCI-AML3 cells. Nature of the series: Proliferation of human AML cell lines exposed to SAA1. The class given is cell-based. The following applies: SAA1 1 μg/mL, 24–72 hours, versus vehicle.
Series [11] relates to Ido1 expression in WEHI-3B cells. Put plainly: Ido1 mRNA in WEHI-3B cells exposed to recombinant SAA. It counts as cell-based, mouse. Particulars: exposed overnight.
In series [12] the test system is leukemic blasts (hCD45+CD33+). It counts as in vivo, NSGS mice.
Series [13] deals with AHR target genes (CYP1A1, CYP1A2). Nature of the series: AHR target gene mRNA in human AML and MDS cells exposed to SAA1. It counts as cell-based. Particulars: SAA1 1µg/ml o/n.
The next series deals with WEHI-3B cells. Put plainly: Proliferation of mouse AML cell line exposed to SAA3. It counts as cell-based. Particulars: SAA3 1 μg/mL, 24–72 hours, versus vehicle.
The mark [14] stands for this setting: SAA1 i.v., 2- and 8-day treatments.

Sequence of 5-HT1B receptor (HTR1B) (P28222 whole entry): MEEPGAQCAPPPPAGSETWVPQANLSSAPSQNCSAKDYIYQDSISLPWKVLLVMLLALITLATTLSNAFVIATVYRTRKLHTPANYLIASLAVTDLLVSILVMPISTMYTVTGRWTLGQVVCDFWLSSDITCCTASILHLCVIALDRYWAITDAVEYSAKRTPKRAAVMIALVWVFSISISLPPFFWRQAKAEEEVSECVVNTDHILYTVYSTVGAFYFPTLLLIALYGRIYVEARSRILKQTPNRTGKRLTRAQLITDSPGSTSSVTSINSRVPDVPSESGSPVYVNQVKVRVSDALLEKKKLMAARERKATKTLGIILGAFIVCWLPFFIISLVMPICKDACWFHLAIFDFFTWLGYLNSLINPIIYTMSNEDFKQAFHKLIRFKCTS
Sequence of mouse HTR1B (P28334 whole entry): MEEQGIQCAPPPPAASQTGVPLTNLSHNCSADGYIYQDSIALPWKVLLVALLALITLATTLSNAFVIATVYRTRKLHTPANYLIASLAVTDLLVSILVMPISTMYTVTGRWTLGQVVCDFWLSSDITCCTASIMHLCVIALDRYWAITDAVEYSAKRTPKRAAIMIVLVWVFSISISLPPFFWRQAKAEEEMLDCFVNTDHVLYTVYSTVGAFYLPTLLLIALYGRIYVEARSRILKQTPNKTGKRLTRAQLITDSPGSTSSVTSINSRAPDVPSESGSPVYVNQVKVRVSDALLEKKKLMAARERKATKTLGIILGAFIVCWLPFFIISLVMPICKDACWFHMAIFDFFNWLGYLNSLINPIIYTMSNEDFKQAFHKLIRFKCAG
Sequence of murine HTR1B receptor (P28334 whole entry): as above

For `NCCc1c[nH]c2ccc(O)cc12` [5-HT, 5-hydroxytryptamine, reference compound], the “Saa3 expression in mouse osteoblasts (Htr1b+/+)” value in [1] was “had no effect”.
As for `Nc1ccn([C@@H]2O[C@H](CO)[C@@H](O)[C@@H]2O)c(=O)n1` [Ara-C, 1-β-D-arabinofuranosylcytosine], the “effect on leukemic burden in SP relative to BM” value in series [2] is reported as “more sustained in the SP than in BM”.
As for `Nc1ccccc1C(=O)CC(N)C(=O)O` (stereo not drawn) [Kyn, kynurenine], in series [1], the “Saa3 expression in Htr1b−/− primary osteoblasts” value was “failed to upregulate Saa3 expression” and the “Saa3 expression in mouse osteoblasts (Htr1b+/+)” value is listed as “potently upregulated Saa3 expression”. The “mode of action on Gi/o-mediated cAMP production through HTR1B” value at 5-HT1B receptor (HTR1B) is recorded as “partial agonist”. The EC50 on 5-HT1B receptor (HTR1B) (EC50 (nmol/L), cAMP Gi agonist, human HTR1B) is about 772 nM. In addition, in series [3], the “AML burden in BM and SP” value was “AML burden increased in BM and SP”; the “proliferative capacity of the leukemic blasts” value is “increases”. Further, in series [3] (low AML burden PDX mice), the “serum SAA3” value was “increases serum SAA3”.
With `Cc1nc(-c2ccc(-c3ccc(C(=O)N4CCc5cc6c(cc54)C4(CCN(C)CC4)CO6)cc3)c(C)c2)no1` [SB224289, 1′-methyl-5-[[2′-methyl-4“-(5-methyl-1,2,4-oxadiazol-3-yl)biphenyl-4-yl]carbonyl]-2,3,6,7-tetrahydro-spiro[furo[2,3-f]indole-3,4-”piperidine]], in the series on MLL/AF9 AML cells (SB9 5 mg/kg i.p. daily from 1 week after leukemia injection), the “protection of MLL/AF9-injected mice” value was “only partially protected”. In the series with MLL/AF9 AML cells (SB9 5 mg/kg i.p. daily versus vehicle), the survival result is “significant increase in survival”. In addition, on murine HTR1B receptor, the “effect on Kyn binding to the murine HTR1B receptor” value is listed as “no effect”. On mouse HTR1B, the “5-HT binding to HTR1B at the administered dose” value was “effective in abolishing 5-HT binding to HTR1B”. Also, the “bone expression of Cyclins D1, D2, and E1” value in series [4] is “upregulated”.
Consider `NS(=O)(=O)NCCNc1nonc1C(=NO)Nc1ccc(F)c(Br)c1` [epacadostat], for which, in the series with MLL/AF9 AML cells (epacadostat diet 0.8 g/kg), the leukemia progression entry is recorded as “tendency toward a slower leukemia progression” and the survival entry is recorded as “slight—yet significant—increase in survival”. The AML burden result with MLL/AF9 AML cells (epacadostat diet 1.6 g/kg) is “significant delay in AML burden”. Moreover, in the series on MLL/AF9 AML cells (epacadostat diet 1.6 g/kg, compared with the lower dose), the survival entry was “significantly prolonged survival”. Also, the “reduction in serum Kyn levels” value in [5] (MLL/AF9 mice, epacadostat diet 1.6 g/kg) is recorded as 35%. Moreover, the “reduction in basal (no leukemia) circulating Kyn/Trp levels” value in [5] (WT mice, epacadostat ad libitum diet 0.8 g/kg) is recorded as 54%. In addition, the “systemic Kyn/Trp levels in MLL/AF9 leukemic mice” value in [5] (epacadostat diet 0.8 g/kg) is “did not reduce the 1.5-fold increase in systemic Kyn/Trp levels”. In series [6], the “G0–G1 and G2–M populations of leukemic blasts” value is “remained unchanged”; the leukemic blast apoptosis result is given as “increased leukemic blast apoptosis”; the “proliferation of leukemic blasts (hCD45+CD33+), in vivo cell cycle” value is on record as “less proliferative”. In addition, the “reduction in Kyn/Trp levels in blood” value in series [6] (12-day regimen) was about 20%. Further, the “reduction in AML BM burden” value in [6] (versus vehicle) is reported as about 20%. Moreover, the systemic toxicity entry in series [7] is “did not show any obvious systemic toxicity”. The “effect on leukemic burden in SP relative to BM” value in series [2] was “more pronounced effect in the SP”.
On to “sgRNA#196: chemically modified mouse sgRNA targeting Ido1 exon 3: CUGCCCACACUGAGCACGGA (chemically modified, pattern not given here)”, for which the deletion efficiency with Ido1 is on record as about 40%.

B1: SAA1: recombinant human acute-phase protein serum amyloid A1 (PeproTech) (protein, UniProt P0DJI8 19-122, looked up)
Serum amyloid A-1 protein: RSFFSFLGEAFDGARDMWRAYSDMREANYIGSDKYFHARGNYDAAKRGPGGAWAAEVITDARENIQRFFGHGAEDSLADQAANEWGRSGKDPNHFRPAGLPEKY
As to B1, in series [8] (Fig. S4O, exposed o/n to SAA1), the “IDO1 upregulation in other cell lines” value was “observed across several human AML cell lines as well as the MDS-L cell line”. Moreover, the “IDO1 expression in OCI-AML3 cells” value in series [8] (overnight, 50 ng/mL recombinant protein) is given as “the only osteoblast-secreted molecule able to upregulate IDO1 expression”. Also, in series [9], the “IDO1 mRNA levels in patient-derived BM-MNCs” value was “increased”; the “proliferation of lineage-depleted AML and MDS BM-MNCs from patient aspirates” value is recorded as “promoted proliferation”. Besides, in series [10], the “IDO1 expression in PDX-isolated human cells” value was “upregulated only in response to SAA1 in the PDX AML-isolated human cells” and the “proliferation of human cells from CD34+ healthy injected mice” value was “unresponsive”. Also, the “proliferation of patient-derived cells from AML-injected mice” value in [10] (versus vehicle) was “high proliferative activity”. The “proliferation of human AML cell lines” value with THP-1 and OCI-AML3 cells is on record as “increased proliferation”. The “Ido1 expression in WEHI-3B cells” value in [11] is given as “able to upregulate Ido1 expression in WEHI-3B cells with a magnitude similar to SAA3”. For the same molecule, the “proliferative rate of leukemic blasts (EdU+ cells, S-phase)” value in [12] (SAA1 100 μg/kg i.v., 2- and 8-day treatments) was “maintained and prominent increase in the proliferative rate of leukemic blasts”. Besides, in series [12] (setting [14]), the “G0–G1 cells of leukemic blasts” value is listed as “decrease” and the “G2–M phase of leukemic blasts” value is on record as “unvarying”. For the same molecule, in series [12] (SAA1 i.v., completion of the 8-day treatment), the “increase in AML burden in the BM” value was 1.5 fold. In addition, the “AHR target gene expression in human AML and MDS cell lines” value in [13] was “upregulated most of the main AHR target genes”.

B2: SAA3: recombinant mouse SAA3 (Cusabio), murine ortholog of SAA1 (protein, UniProt P04918 19-122, looked up)
Serum amyloid A-3 protein: QRWVQFMKEAGQGSRDMWRAYSDMKKANWKNSDKYFHARGNYDAARRGPGGAWAAKVISDAREAVQKFTGHGAEDSRADQFANEWGRSGKDPNHFRPAGLPKRY
On to B2, for which, in the series with WEHI-3B cells, the “proliferation of mouse AML cell line” value is listed as “increased proliferation”. Besides, in [11], the “Ido1 expression in WEHI-3B cells” value is “upregulated Ido1 expression”.

A word on the EC50: it is the midpoint of the concentration-response curve.
